In patent US10689345B2, “1-cyano-pyrrolidine compounds as USP30 inhibitors” (Mission Therapeutics Limited, priority 2015, dated 2020) one finds IC50 data, which are given here for 9 compounds.

The target of this experiment is USP30 (Homo sapiens (Human), UniProt Q70CQ3). Briefly: USP30 biochemical FP (fluorescence polarisation) IC50 assay. To be noted: USP30 biochemical FP or FI IC50 assay (table does not say which per compound); read-out: IC50 range. The protocol:
In Vitro USP30 FP Inhibition Assay
USP30 Biochemical IC50 Assay
Dilution plates were prepared at 21 times the final concentration (2100 μM for a final concentration of 100 μM) in 50% DMSO in a 96-well polypropylene V-bottom plate (Greiner #651201). A typical 8-point dilution series would be 100, 30, 10, 3, 1, 0.3, 0.1, 0.03 μM final. Reactions were performed in duplicate in black 384 well plates (small volume, Greiner 784076) in a final reaction volume of 21 μl. Either 1 μl of 50% DMSO or diluted compound was added to the plate. USP30 was diluted in reaction buffer (40 mM Tris, pH 7.5, 0.005% Tween 20, 0.5 mg/ml BSA, 5 mM beta-mercaptoethanol) to the equivalent of 0.05 μl/well and 10 μl of diluted USP30 was added to the compound. Enzyme and compound were incubated for 30 min at room temp. Reactions were initiated by the addition of 50 nM of TAMRA labelled peptide linked to ubiquitin via an iso-peptide bond as fluorescence polarisation substrate. Reactions were read immediately after addition of substrate and following a 2 hr incubation at room temperature. Readings were performed on a Pherastar Plus (BMG Labtech). λ Excitation 540 nm; λ Emission 590 nm.

A value given as a limit tells only on which side of the number the result lay.

Chain of USP30 (Q70CQ3 57-517): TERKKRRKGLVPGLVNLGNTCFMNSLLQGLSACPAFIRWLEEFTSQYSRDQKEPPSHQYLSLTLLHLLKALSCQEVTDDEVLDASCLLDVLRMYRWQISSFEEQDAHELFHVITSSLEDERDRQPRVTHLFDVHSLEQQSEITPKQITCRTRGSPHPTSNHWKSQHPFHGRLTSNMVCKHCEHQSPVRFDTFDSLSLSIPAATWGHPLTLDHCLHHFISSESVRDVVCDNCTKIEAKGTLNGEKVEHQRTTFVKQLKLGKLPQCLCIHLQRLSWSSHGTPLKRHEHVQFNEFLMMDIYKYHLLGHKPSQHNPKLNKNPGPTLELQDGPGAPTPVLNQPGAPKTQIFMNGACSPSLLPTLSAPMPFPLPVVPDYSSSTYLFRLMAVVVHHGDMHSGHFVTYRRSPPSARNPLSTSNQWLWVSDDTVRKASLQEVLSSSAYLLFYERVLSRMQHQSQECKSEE

As to `N#CN1C[C@H](NC(=O)c2ccc(-c3ccccc3)cc2)[C@@H](F)C1` (relative stereo) [Example 176, N-((trans)-1-cyano-4-fluoropyrrolidin-3-yl)-[1,1′-biphenyl]-4-carboxamide], the IC50 fell in the range of 100 to 1000 nM. The result for `Cn1cc(-c2ccc(C(=O)N[C@@H]3CCN(C#N)C3)c(F)c2F)cn1` [Example 131, (R)-N-(1-cyanopyrrolidin-3-yl)-2,3-difluoro-4-(1-methyl-1H-pyrazol-4-yl)benzamide] reads < 100 nM; that for `N#CN1CC[C@@H](NC(=O)c2cc(F)c(N3CCOCC3)cc2F)C1` [Example 144, (R)-N-(1-cyanopyrrolidin-3-yl)-2,5-difluoro-4-morpholinobenzamide], 100 to 1000 nM; that for `Cn1cc(-c2ccc3nc(C(=O)N[C@@H]4CCN(C#N)C4)c(F)n3c2)cn1` [Example 168, (R)-N-(1-cyanopyrrolidin-3-yl)-3-fluoro-6-(1-methyl-1H-pyrazol-4-yl)imidazo [1,2-a]pyridine-2-carboxamide], 100 to 1000 nM. The figure for `N#CN1CC[C@@H](NC(=O)c2cc(-c3ccc(Cl)cc3)no2)C1` [Example 218, (R)-3-(4-chlorophenyl)-N-(1-cyanopyrrolidin-3-yl)isoxazole-5-carboxamide] is < 100 nM. In the case of `N#CN1CCC(NC(=O)Nc2ccc(-c3ccccc3)cc2)C1` (stereo not drawn) [Example 254, 1-([1,1′-biphenyl]-4-yl)-3-(1-cyanopyrrolidin-3-yl)urea], the half-maximal inhibitory concentration (IC50) is < 100 nM. As for `Cc1noc(C)c1-c1ccc2cc(C(=O)N(C)[C@@H]3CCN(C#N)C3)[nH]c2c1` [Example 262, (R)-N-(1-cyanopyrrolidin-3-yl)-6-(3,5-dimethylisoxazol-4-yl)-N-methyl-1H-indole-2-carboxamide], the IC50 was < 100 nM. Turning to “(R)-N-(1-cyanopyrrolidin- 3-yl)-2-fluoro-3-(1-methyl- 1H-pyrazol-yl)benzamide [Example 104]”, the IC50 was in the range of 100 to 1000 nM.

On to “N-((R)-1-cyanopyrrolidin- 3-yl)-((2S,6R)-2,6- dimethylmorpholino)-5- fluoroisonicotinamide [Example 140]”, for which the IC50 was in the range of 100 to 1000 nM.
